These are literature values, as cited in patent US12570633B2, “Preparation method for CDK4/6 inhibitor” (CHIA TAI TIANQING PHARMACEUTICAL GROUP CO., LTD., priority 2020, dated 2026).

For one data set, the system named is CDK4/6. As to conditions: background statement referring to WO2016141881; read-out: IC50 value against CDK4/6.
In another data set the test system is breast cancer. As to conditions: background statement referring to WO2016141881.

As to `CC(C)c1c2cc(-c3nc(Nc4ccc(N5CCNCC5)cn4)ncc3F)ccc2nn1C` [compound of formula (I)], the IC50 in the data set with CDK4/6 is less than 1 nM. Also, in the data set on breast cancer, the “tumor inhibitory activity against breast cancer” value is “good tumor inhibitory activity”.
